Measured values published in ChEMBL document CHEMBL1201862, “PubChem BioAssay data set” (2004).
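Exposure lasted 48 hours, with cells grown in 96-well plates and compounds tested at five concentrations. At the GI50, growth is halved.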 Active and inactive are the calls of the source. Cut-off read from the data, not from the text of the source: active = GI50 up to about 1.1 µM and inactive = higher.

Columns and labels:
Experiment in all cases: NCI-60 cell line screen, 48 h
[1] = tested on: KM12
[2] = tested on: OVCAR-3
[3] = tested on: OVCAR-4
[4] = tested on: SW-620
[5] = tested on: HCT-116
[6] = tested on: SK-MEL-5
[7] = tested on: SF-268
[8] = tested on: CAKI-1
[9] = tested on: A549
[10] = tested on: 786-0
[11] = tested on: OVCAR-8
[12] = tested on: IGROV-1
[13] = tested on: NCI-H460
[14] = tested on: SK-OV-3
[15] = tested on: LOX IMVI
[16] = tested on: RPMI-8226
[17] = tested on: Malme-3M

SMILES | GI50 [1] | GI50 [2] | GI50 [3] | GI50 [4] | GI50 [5] | GI50 [6] | GI50 [7] | GI50 [8] | GI50 [9] | GI50 [10] | GI50 [11] | GI50 [12] | GI50 [13] | GI50 [14] | GI50 [15] | GI50 [16] | GI50 [17]
CN(C)CCNC(=O)c1cccc2c1nc(-c1ccncc1)c1ccccc12 | 5.28 µM (inactive) | 5.35 µM (inactive) | 4.01 µM (inactive) | 1.11 µM (active) | 1.46 µM (inactive) | 1.81 µM (inactive) | 5.53 µM (inactive) | 1.81 µM (inactive) | 0.552 µM (active) | 3.66 µM (inactive) | 3.06 µM (inactive) | 1.02 µM (active) | 0.0408 µM (active) | 5.71 µM (inactive) | 1.35 µM (inactive) |  | 
CC1=NN(c2ccccc2)C(=O)C1=C1SCCS1 | > 88.9 µM (inactive) | 34.9 µM (inactive) | > 100 µM (inactive) | > 38.3 µM (inactive) | > 48 µM (inactive) | 59.3 µM (inactive) | > 94.6 µM (inactive) | > 78.9 µM (inactive) | > 70 µM (inactive) | > 72.9 µM (inactive) | > 77.6 µM (inactive) | 82.4 µM (inactive) | 50.7 µM (inactive) | > 100 µM (inactive) | 42.6 µM (inactive) | > 25.8 µM (inactive) | > 67.6 µM (inactive)
CCOP(=O)(OCC)C(C(=O)OC)C(=O)C(=O)Nc1c(C)cc(Br)cc1C (centres undefined) | > 100 µM (inactive) | > 100 µM (inactive) | > 100 µM (inactive) | > 100 µM (inactive) | > 100 µM (inactive) | > 100 µM (inactive) | > 100 µM (inactive) | > 100 µM (inactive) | > 100 µM (inactive) | > 100 µM (inactive) | > 100 µM (inactive) | > 100 µM (inactive) | > 100 µM (inactive) | > 100 µM (inactive) | > 100 µM (inactive) | > 100 µM (inactive) | > 100 µM (inactive)
CCOc1ccc2c(c1)[n+]([O-])c(S(=O)(=O)c1ccc(C)cc1)c(N)[n+]2[O-] | > 100 µM (inactive) | > 100 µM (inactive) | > 100 µM (inactive) | > 100 µM (inactive) | > 100 µM (inactive) | > 100 µM (inactive) | > 100 µM (inactive) | > 100 µM (inactive) | > 100 µM (inactive) | > 100 µM (inactive) | > 100 µM (inactive) | > 100 µM (inactive) | > 100 µM (inactive) | > 100 µM (inactive) |  | > 100 µM (inactive) | > 100 µM (inactive)
COCCOCOC(CCCCO)c1cc(C)c(O[Si](C)(C)C(C)(C)C)c(C)c1 (centres undefined) | 4.59 µM (inactive) | 5.83 µM (inactive) |  | 7.31 µM (inactive) |  | 2.64 µM (inactive) | 6.05 µM (inactive) |  | 3.68 µM (inactive) | 11.1 µM (inactive) | 5.01 µM (inactive) | 12.2 µM (inactive) | 5.24 µM (inactive) | 17.6 µM (inactive) | 5.66 µM (inactive) | 2.08 µM (inactive) | 2.47 µM (inactive)
C#CCN(N=O)C(=O)NC(CCCCNC(=O)OCc1ccccc1)C(=O)OCc1ccccc1 (centres undefined) | 77.3 µM (inactive) | 36.1 µM (inactive) | 24.7 µM (inactive) | 23.3 µM (inactive) | 33.8 µM (inactive) |  | 47 µM (inactive) |  | 76.2 µM (inactive) | 17.8 µM (inactive) | 17.4 µM (inactive) | > 100 µM (inactive) | 61 µM (inactive) | > 100 µM (inactive) | 25.5 µM (inactive) | 18.7 µM (inactive) | 28.2 µM (inactive)
O=C(O)CNS(=O)(=O)c1ccc(NCc2ccccc2)cc1 |  |  | > 100 µM (inactive) | > 100 µM (inactive) | > 100 µM (inactive) | > 100 µM (inactive) | > 100 µM (inactive) | > 100 µM (inactive) | > 100 µM (inactive) | > 100 µM (inactive) | > 100 µM (inactive) | > 100 µM (inactive) | > 100 µM (inactive) | > 100 µM (inactive) | > 100 µM (inactive) | > 100 µM (inactive) | > 100 µM (inactive)
